{
  "source": "patent US10335411B2",
  "about": "“Administration of ubiquitin-activating enzyme inhibitor and radiation” (Millennium Pharmaceuticals, Inc., priority 2014, dated 2019)",
  "key": {"[1]": {"system": "LU-01-0030 xenograft", "test": "LU-01-0030 xenograft model, first study, Compound 1 and radiation", "format": "in vivo, mice", "from_the_text": "The LU-01-0030 xenograft model is a human primary non-small cell lung cancer model. In the first study with the LU-01-0030 model, approximately nine week old female BALB/c nude (Shanghai Sino-British SIPPR/BK Laboratory Animal Co., LTD.) mice were implanted subcutaneously with approximate 30 mm^3 LU-01-0030 tumor slices in the right flank. When the mean tumor volume reached approximately 159 mm^3, the animals were randomized into 10 treatment groups (n=8/group).\nCompound 1 [((1R,2R,3S,4R)-2,3-dihydroxy-4-(2-(3-(trifluoromethylthio) ? phenyl)pyrazolo[1,5-a]pyrimidin-7-ylamino)cyclopentyl)methyl sulfamate] is formulated in 10% HPbCD in sterile water and administered intravenously on a BIW (twice/week schedule; Monday and Thursday, i.e. days 0, 3, 7, 10, 14, 17) for 3 weeks in the HN-13-0014 and LU-01-0030 (first study) models. Compound 1 formulation was prepared weekly and stored at room temperature in the dark.\nBeam-focused radiation was delivered using a either 1 or 2 Gray dosed on days 0, 1, 7, and 8 or on days 0, 3, 7, and 10 in the HN-13-0014 and LU-01-0030 (first study) models. A Rad Source RS-2000 X-ray irradiator was used for therapy (Rad Source). Before radiation, animals were anesthetized by i.p. injection using 1.0% sodium pentobarbital at 80 mg/kg (Vendor: Sigma). Focused radiation was applied to each mouse at 1 Gy/min.\nTumors were measured twice weekly using vernier calipers. Tumor volumes were calculated using the following formula: (0.5×[length×width^2]). Treatment groups and dosing/treatment schedules are indicated in Tables 1a, 2a, 3a, 4a, and 5a below. Tumor size and body weight are measured approximately twice a week for the duration of the study. Mice are euthanized when their tumor volume reached approximately 1000 mm^3. Tumor growth continued to be monitored after the dosing period in some studies. In Tables 1a, 2a, 3a, 4a, and 5a tumor volumes are shown for HN-13-0014 (day 21), LU-01-0030 (day 21), the second LU-01-0030 study (day 20), LU-01-0266 (day 20), ST-02-0004 (day 21) and FIN-13-0007 (day 24), respectively. Average tumor volume is reported as a function of time for selected groups of selected studies.\nMeasurements from day 0 to day 20, day 21 or day 24 are analyzed as specified in Tables below. All tumor volumes have a value of 1 added to them before log10 transformation. For each animal, the log tumor volume at day 0 is subtracted from the log tumor volume on the subsequent days. This difference vs. time is used to calculate an area under the curve (AUC) for each animal using the trapezoid rule. In instances when an animal in a treatment group is removed early from the study, the last observed tumor value is carried forward through all subsequent time points. The synergy score for the combination of agents A and B is defined as 100*(mean(AUCAB)−mean(AUCA)−mean(AUCB)+mean(AUCctl))/mean(AUCctl): where AUCAB, AUCA, AUCB, and AUCctl are the AUC values for animals in the combination group, the A group, the B group, and the control group, respectively. The standard error of the synergy score is computed based on the variation in the AUC values among the animals. […] If the P-value is above 0.05, then the combination is considered to be additive. If the P-value is below 0.05, and the synergy score is less than zero, then the combination is considered to be synergistic. If the P-value is below 0.05 and the synergy score was greater than zero, but the mean AUC for the combination was lower than the lowest mean AUC among the two single agent treatments, then the combination was sub-additive. If the P-value is below 0.05 and if the synergy score was greater than zero, and the mean AUC for the combination was greater than the mean AUC for at least one of the single agent treatments, then the combination was antagonistic."}, "[2]": {"system": "HCT-116 cells", "test": "In vitro colony formation assay", "format": "cell-based", "settings": "after 10 days, replicate wells", "method": "General Method: HCT-116 cells are grown in McCoy's 5A Medium supplemented with 10% fetal bovine serum. Cells are seeded (200/well) on a 12-well plate. The next day cells are treated with increasing concentrations of Compound 1 (in medium) and 2 hours later irradiated with 0, 2 or 4 gray. After an additional 6 hour, medium is replaced with and without (washout condition) Compound 1. After 10 days the number of colonies is counted and recorded. Radiator used is an X-ray irradiator (MBR-1520R-3, Hitachi Power Solutions Co., Ltd.).\nTen days following initiation of treatment, the number of HCT-116 colonies per well is counted using GelCount™ (Oxford Optronix Ltd.) and the raw data results are indicated in Table 6."}, "[3]": {"settings": "6.25 mg/kg Compound 1 + 2 Gy Radiation D0, 1, 7, 8"}, "[4]": {"settings": "6.25 mg/kg Compound 1 + 2 Gy Radiation D0, 3, 7, 10"}, "[5]": {"settings": "15 mg/kg Compound 1 + 2 Gy Radiation D0, 1, 7, 8"}, "[6]": {"settings": "15 mg/kg Compound 1 + 2 Gy Radiation D0, 3, 7, 10"}},
  "note": "“And” between values parts separate entries of the source, which are not always exact repeats. Equal entries are not always repeated.",
  "data": [
    {"smiles": "NS(=O)(=O)OC[C@H]1C[C@@H](Nc2ccnc3cc(-c4cccc(SC(F)(F)F)c4)nn23)[C@H](O)[C@@H]1O", "note": "[Compound 1, ((1R,2R,3S,4R)-2,3-dihydroxy-4-(2-(3-(trifluoromethylthio)phenyl)pyrazolo[1,5-a]pyrimidin-7-ylamino)cyclopentyl)methyl sulfamate]", "values": [
      {"measurement": "Classification", "setting": "[1]; [3]", "value": "Additive (If the P-value is above 0.05, then the combination is considered to be additive)"},
      {"measurement": "Synergy score", "setting": "[1]; [3]", "value": 5.4},
      {"measurement": "Classification", "setting": "[1]; [4]", "value": "Additive (If the P-value is above 0.05, then the combination is considered to be additive)"},
      {"measurement": "Synergy score", "setting": "[1]; [4]", "value": "−22.2"},
      {"measurement": "Tumor Volume Day 21", "setting": "[1]; 6.25 mg/kg Compound 1 IV BIWx3 + 2 Gy Radiation Beam D 0, 1, 7, 8", "value": 101.9, "unit": "mm^3"},
      {"measurement": "Tumor Volume Day 21", "setting": "[1]; 6.25 mg/kg Compound 1 IV BIWx3 + 2 Gy Radiation Beam D 0, 3, 7, 10", "value": 106.3, "unit": "mm^3"},
      {"measurement": "Tumor Volume Day 21", "setting": "[1]; 6.25 mg/kg Compound 1 IV BIWx3, single agent", "value": 555.7, "unit": "mm^3"},
      {"measurement": "anti-tumor activity compared to the vehicle control", "setting": "[1]; 6.25 mg/kg Compound 1 as a single agent", "value": "no anti-tumor activity"},
      {"measurement": "Classification", "setting": "[1]; [5]", "value": "Synergy (If the P-value is below 0.05, and the synergy score is less than zero, then the combination is considered to be synergistic)"},
      {"measurement": "Synergy score", "setting": "[1]; [5]", "value": "−139.6"},
      {"measurement": "Classification", "setting": "[1]; [6]", "value": "Synergy (If the P-value is below 0.05, and the synergy score is less than zero, then the combination is considered to be synergistic)"},
      {"measurement": "Synergy score", "setting": "[1]; [6]", "value": "−165.9"},
      {"measurement": "Tumor Volume Day 21", "setting": "[1]; 15 mg/kg Compound 1 IV BIWx3 + 2 Gy Radiation Beam D 0, 1, 7, 8", "value": 2.3, "unit": "mm^3"},
      {"measurement": "Tumor Volume Day 21", "setting": "[1]; 15 mg/kg Compound 1 IV BIWx3 + 2 Gy Radiation Beam D 0, 3, 7, 10", "value": 2.8, "unit": "mm^3"},
      {"measurement": "Tumor Volume Day 21", "setting": "[1]; 15 mg/kg Compound 1 IV BIWx3, single agent", "value": 151.3, "unit": "mm^3"},
      {"measurement": "anti-tumor activity, single agent", "setting": "[1]; Compound 1 at 15 mg/kg as single agent", "value": "tumor stasis"},
      {"measurement": "combination effect", "setting": "[1]; Compound 1 with 2 Gy radiation", "value": "additive-to-synergistic combination effect"},
      {"measurement": "Number of Colonies/well", "setting": "[2]; Washout No, Radiation 0 Gray, Compound 1 30 nM", "value": 0},
      {"measurement": "Number of Colonies/well", "setting": "[2]; Washout No, Radiation 0 Gray, Compound 1 100 nM", "value": 0},
      {"measurement": "Number of Colonies/well", "setting": "[2]; Washout No, Radiation 0 Gray, Compound 1 300 nM", "value": 0},
      {"measurement": "Number of Colonies/well", "setting": "[2]; Washout No, Radiation 2 Gray, Compound 1 30 nM", "value": 0},
      {"measurement": "Number of Colonies/well", "setting": "[2]; Washout No, Radiation 2 Gray, Compound 1 100 nM", "value": 0},
      {"measurement": "Number of Colonies/well", "setting": "[2]; Washout No, Radiation 2 Gray, Compound 1 300 nM", "value": 0},
      {"measurement": "Number of Colonies/well", "setting": "[2]; Washout No, Radiation 4 Gray, Compound 1 30 nM", "value": 0},
      {"measurement": "Number of Colonies/well", "setting": "[2]; Washout No, Radiation 4 Gray, Compound 1 100 nM", "value": 0},
      {"measurement": "Number of Colonies/well", "setting": "[2]; Washout No, Radiation 4 Gray, Compound 1 300 nM", "value": 0},
      {"measurement": "Number of Colonies/well", "setting": "[2]; Washout Yes, Radiation 0 Gray, Compound 1 30 nM", "value": "20 (2×) and 26"},
      {"measurement": "Number of Colonies/well", "setting": "[2]; Washout Yes, Radiation 0 Gray, Compound 1 100 nM", "value": "1 (2×) and 0"},
      {"measurement": "Number of Colonies/well", "setting": "[2]; Washout Yes, Radiation 0 Gray, Compound 1 300 nM", "value": 0},
      {"measurement": "Number of Colonies/well", "setting": "[2]; Washout Yes, Radiation 2 Gray, Compound 1 30 nM", "value": "3 and 7 and 6"},
      {"measurement": "Number of Colonies/well", "setting": "[2]; Washout Yes, Radiation 2 Gray, Compound 1 100 nM", "value": 0},
      {"measurement": "Number of Colonies/well", "setting": "[2]; Washout Yes, Radiation 2 Gray, Compound 1 300 nM", "value": 0},
      {"measurement": "Number of Colonies/well", "setting": "[2]; Washout Yes, Radiation 4 Gray, Compound 1 30 nM", "value": "1 (2×) and 4"},
      {"measurement": "Number of Colonies/well", "setting": "[2]; Washout Yes, Radiation 4 Gray, Compound 1 100 nM", "value": "0 (2×) and 1"},
      {"measurement": "Number of Colonies/well", "setting": "[2]; Washout Yes, Radiation 4 Gray, Compound 1 300 nM", "value": 0}
    ]}
  ]
}
